We go through six molecules from ChEMBL document CHEMBL3588828, “A Selective, Cell-Permeable Nonphosphorylated Bicyclic Peptidyl Inhibitor against Peptidyl-Prolyl Isomerase Pin1” (J Med Chem, 2015).

Molecules are shown by their SMILES.

The assay deals with Peptidyl-prolyl cis-trans isomerase NIMA-interacting 1 (Homo sapiens, UniProt Q13526, S16A/Y23A). Nature of the assay: Binding affinity to N-terminal MBP fused and Texas-red-labeled full-length human Pin1 S16A/Y23A mutant expressed in Escherichia coli assessed as increase in fluorescence anisotropy by spectrofluorimetry. The conditions noted are these: read-out: Kd.
Chain of Peptidyl-prolyl cis-trans isomerase NIMA-interacting 1 (Q13526 whole entry S16A/Y23A, the tested form may be a part): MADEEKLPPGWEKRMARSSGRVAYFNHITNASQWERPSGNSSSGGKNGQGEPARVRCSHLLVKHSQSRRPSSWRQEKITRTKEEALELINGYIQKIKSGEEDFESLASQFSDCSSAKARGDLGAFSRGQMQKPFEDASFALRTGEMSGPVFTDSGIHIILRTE
Turning to `C[C@@H]1NC(=O)[C@H](CCCNC(=N)N)NC(=O)[C@H](Cc2ccc3ccccc3c2)NC(=O)[C@H]2CCCCN2C(=O)[C@@H]([C@H](C)O)NC(=O)[C@H](Cc2ccc(F)cc2)NC(=O)[C@@H](Cc2ccccc2)NC(=O)c2cc3cc(c2)C(=O)NC[C@H](NC(=O)[C@@H](Cc2ccccc2)NC1=O)C(=O)N[C@@H](CCCNC(=N)N)C(=O)N[C@@H](CCCNC(=N)N)C(=O)N[C@@H](Cc1ccc2ccccc2c1)C(=O)N[C@@H](Cc1ccccc1)C(=O)N[C@@H](CCCNC(=N)N)C(=O)N[C@@H](CCCNC(=N)N)C(=O)N[C@H](C(=O)N[C@@H](CCCCN)C(=O)O)CNC3=O`, the Kd came to 1.38 µM.
The value for `C[C@@H]1NC(=O)[C@H](CCCNC(=N)N)NC(=O)[C@H](Cc2ccc3ccccc3c2)NC(=O)[C@H]2CCCCN2C(=O)[C@@H]([C@H](C)O)NC(=O)[C@H](Cc2ccc(F)cc2)NC(=O)[C@@H](Cc2ccccc2)NC(=O)c2cc3cc(c2)C(=O)NC[C@H](NC(=O)[C@@H](Cc2ccccc2)NC1=O)C(=O)N[C@@H](CCCNC(=N)N)C(=O)N[C@@H](Cc1ccc2ccccc2c1)C(=O)N[C@@H](CCCNC(=N)N)C(=O)N[C@@H](Cc1ccccc1)C(=O)N[C@@H](CCCNC(=N)N)C(=O)N[C@@H](CCCNC(=N)N)C(=O)N[C@H](C(=O)N[C@@H](CCCCN)C(=O)O)CNC3=O` was 0.45 µM; that for `C[C@@H]1NC(=O)[C@H](CCCNC(=N)N)NC(=O)[C@H](Cc2ccc3ccccc3c2)NC(=O)[C@H]2CCCCN2C(=O)[C@@H]([C@H](C)O)NC(=O)[C@H](Cc2ccc(F)cc2)NC(=O)[C@@H](Cc2ccccc2)NC(=O)c2cc3cc(c2)C(=O)NC[C@H](NC(=O)[C@@H](C)NC1=O)C(=O)N[C@@H](Cc1ccccc1)C(=O)N[C@@H](Cc1ccc2ccccc2c1)C(=O)N[C@@H](CCCNC(=N)N)C(=O)N[C@@H](CCCNC(=N)N)C(=O)N[C@@H](CCCNC(=N)N)C(=O)N[C@@H](CCCNC(=N)N)C(=O)N[C@H](C(=O)N[C@@H](CCCCN)C(=O)O)CNC3=O` was 0.67 µM; that for `C[C@@H]1NC(=O)[C@H](CCCNC(=N)N)NC(=O)[C@H](Cc2ccc3ccccc3c2)NC(=O)[C@H]2CCCCN2C(=O)[C@@H]([C@H](C)O)NC(=O)[C@H](Cc2cnc[nH]2)NC(=O)[C@@H](Cc2ccccc2)NC(=O)c2cc3cc(c2)C(=O)NC[C@H](NC(=O)[C@@H](C)NC1=O)C(=O)N[C@@H](Cc1ccccc1)C(=O)N[C@@H](Cc1ccc2ccccc2c1)C(=O)N[C@@H](CCCNC(=N)N)C(=O)N[C@@H](CCCNC(=N)N)C(=O)N[C@@H](CCCNC(=N)N)C(=O)N[C@@H](CCCNC(=N)N)C(=O)N[C@H](C(=O)N[C@@H](CCCCN)C(=O)O)CNC3=O` was 1.68 µM.
The value for `C[C@@H]1NC(=O)[C@H](CCCNC(=N)N)NC(=O)[C@H](Cc2ccc3ccccc3c2)NC(=O)[C@H]2CCCCN2C(=O)[C@@H]([C@H](C)O)NC(=O)[C@H](Cc2ccc(F)cc2)NC(=O)[C@@H](Cc2ccccc2)NC(=O)c2cc3cc(c2)C(=O)NC[C@H](NC(=O)[C@@H](Cc2ccccc2)NC1=O)C(=O)N[C@@H](CCCNC(=N)N)C(=O)N[C@@H](CCCNC(=N)N)C(=O)N[C@@H](CCCNC(=N)N)C(=O)N[C@@H](CCCNC(=N)N)C(=O)N[C@@H](Cc1ccc2ccccc2c1)C(=O)N[C@@H](Cc1ccccc1)C(=O)N[C@H](C(=O)N[C@@H](CCCCN)C(=O)O)CNC3=O` was 0.98 µM; that for `C[C@@H]1NC(=O)[C@H](CCCNC(=N)N)NC(=O)[C@H](Cc2ccc3ccccc3c2)NC(=O)[C@H]2CCCCN2C(=O)[C@@H](CC(=O)O)NC(=O)CN(C)C(=O)[C@@H]2CCCN2C(=O)c2cc3cc(c2)C(=O)NC[C@H](NC(=O)[C@@H](C)NC1=O)C(=O)N[C@@H](Cc1ccccc1)C(=O)N[C@@H](Cc1ccc2ccccc2c1)C(=O)N[C@@H](CCCNC(=N)N)C(=O)N[C@@H](CCCNC(=N)N)C(=O)N[C@@H](CCCNC(=N)N)C(=O)N[C@@H](CCCNC(=N)N)C(=O)N[C@H](C(=O)N[C@@H](CCCCN)C(=O)O)CNC3=O` (stereo in doubt; 3) was 0.87 µM.
